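Method: 48-hour compound exposure of cells in 96-well plates, five concentrations, linear interpolation of endpoints. The concentration for 50% growth inhibition is given as GI50. TGI: concentration producing complete growth inhibition.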
Assays:
Experiment in all cases: NCI-60 cell line screen, 48 h
[1] = tested on: BT-549 breast
[2] = tested on: DU-145 prostate
[3] = tested on: NCI-H23 lung
[4] = tested on: UACC-62 melanoma
[5] = tested on: MDA-MB-231 breast
[6] = tested on: HCT-116 colon
[7] = tested on: SK-MEL-28 melanoma
[8] = tested on: SK-OV-3 ovarian

| SMILES | GI50 [1] [µM] | TGI [1] [µM] | GI50 [2] [µM] | TGI [2] [µM] | GI50 [3] [µM] | TGI [3] [µM] | GI50 [4] [µM] | TGI [4] [µM] | GI50 [5] [µM] | TGI [5] [µM] | GI50 [6] [µM] | TGI [6] [µM] | GI50 [7] [µM] | TGI [7] [µM] | GI50 [8] [µM] | TGI [8] [µM] |
| --- | --- | --- | --- | --- | --- | --- | --- | --- | --- | --- | --- | --- | --- | --- | --- | --- |
| CN1CCN(CCCOc2ccc3nc(Nc4ccc(C(F)(F)F)c(Cl)c4)ccc3c2)CC1 | 1.84 | 3.53 | 1.58 | 3.09 | 1.47 | 3 | 1.83 | 3.88 | 1.13 | 2.75 | 1.46 | 2.94 | 1.88 | 3.89 | 1.81 | 3.49 |
| Cc1ccc2nc(CC(=O)c3ccc4ccccc4c3)c(=O)[nH]c2c1 |  | > 100 |  | > 100 |  | > 100 |  | > 100 |  | > 100 |  | > 100 |  | > 100 |  | > 100 |
| Cc1csc(-c2ccc3c(c2)COC3(CCCN(C)C)c2ccc(F)cc2)c1 (stereo not given) | 1.6 | 3.2 | 1.91 | 3.56 | 1.83 | 3.44 | 1.78 | 3.36 | 1.79 | 3.34 | 1.86 | 3.54 | 1.77 | 3.3 | 1.87 | 3.69 |
| COc1cc([N+](=O)[O-])c(OC)cc1-c1nc2n(c1/C(N)=N/C(=N)N)CCS2 | > 100 | > 100 | 50.4 | > 100 | 23.3 | 87.1 | 75.5 | > 100 | 27 | > 100 | 20.8 | > 100 | > 100 | > 100 | > 100 | > 100 |
| O=C(Nc1ccc(O)c(NS(=O)(=O)c2ccc(F)cc2)c1)c1ccc(-c2ccccc2)cc1 | 4.6 | 20.2 | 11.7 | 26.3 | 10.5 | 24.3 | 7.53 | 28.1 | 6.15 | 20.4 | 5.12 | 20.7 | 9.06 | 23.5 | 18.8 | 44.2 |
| Cc1nc2sc(C(=O)Nc3cccc(Cl)c3C)c(N)c2cc1C(=O)c1ccccc1 | 0.355 | > 13.6 | 0.524 | > 50 | 1.14 | > 50 | 0.246 | > 50 | 0.463 | > 50 | 0.22 | > 50 | 1.45 | > 50 | 0.229 | > 50 |
| CC#CC(=O)N[C@H]1CCCN(c2c(F)cc(C(N)=O)c3[nH]c(C)c(C)c23)C1 | 14.9 | 30.3 | 26.1 | 88.5 | 19.5 | 41.8 | 14.4 | 28.5 | 14 | 29.1 | 16 | 31.2 | 17.4 | 35.6 | 14.4 | 59.6 |
| Cc1ccc(C(CC(=O)c2ccccc2)C(C(=O)c2ccccc2)C(c2ccc(C)cc2)C2C(=O)NC(=S)NC2=O)cc1 (stereo not given) | 31.7 | > 50 | 18.5 | > 50 | 15.1 | > 50 | 19.5 | > 50 | 9.5 | > 50 | 19 | > 50 | > 50 | > 50 | > 50 | > 50 |
| O=c1cc(-c2ccccc2)nc2cc(-c3ccco3)[nH]n12 | 14.8 | > 100 | 19.5 | 79.7 | 13.2 | 89.1 | 5.66 | > 100 | 7.84 | > 100 | 15.7 | > 100 | 8.78 | > 100 | 14.2 | 82.8 |
| CNC(=O)c1c(NC(=O)c2ccc(C(C)C)cc2)sc2c1CCC(=O)C2 | 0.505 | 2.71 | 3.25 | 12.2 | 0.418 | 3.92 | 0.453 | 1.94 | 0.394 | 1.71 | 0.0892 | 1.34 | 0.748 | 3.39 | 2.47 | 9.09 |
| CN1CCc2cc(O)c3cc2C1Cc1ccc(cc1)Oc1cc(ccc1O)CC1c2c(cc4c(c2O3)OCO4)CCN1C (stereo not given) |  |  |  |  |  | > 100 |  | 47.5 |  |  |  | > 100 |  | 46.4 |  |  |
| N=C(N)c1ccc(-c2ccc(-c3ccc(Cl)c(Cl)c3)o2)nc1 | 1.61 | 3.15 | 1.89 | 3.62 | 2.02 | 4.59 |  |  | 1.64 | 3.38 |  |  | 1.76 | 3.34 | 1.53 | 3.23 |
| Cc1cc2c(=O)c3ccccc3oc2c(C#N)c1C |  |  |  | > 100 |  | > 100 |  |  |  |  |  | > 100 |  | > 100 |  | > 100 |
| COc1ccc(C(=O)c2cc(OC)c(OC)c(OC)c2)cc1/C=C/C(=O)c1ccc2c(c1)OCO2 |  |  | 4.25 | > 100 | 2.67 | 8.22 |  |  | 2.35 | 54.3 |  |  |  |  | 5.7 | 41.1 |
| Nc1nc(Cl)nc2c1ncn2C1CCC(COP(=O)(O)OP(=O)(O)OP(=O)(O)O)O1 (stereo not given) |  |  |  | 69.8 |  | 41.6 |  | 47.9 |  | > 100 |  | > 100 |  | 54.1 |  | > 100 |
| [O]=[W](=[O])([OH])[OH] | > 100 | > 100 | > 100 | > 100 | > 100 | > 100 | > 100 | > 100 | > 100 | > 100 | > 100 | > 100 | > 100 | > 100 |  |  |
| COc1cc(CCNc2nc3cc(N)cc(N)c3nc2-c2ccccc2)cc(OC)c1 | 2.48 | 5.47 | 5.48 | 17.8 | 1.59 | 3.58 | 1.81 | 3.36 | 1.57 | 4.55 |  |  | 1.63 | 3.31 | 3.56 | 13 |
| N#C/C(=C\c1ccc([N+](=O)[O-])s1)c1nc2cc(Br)ccc2s1 | 0.165 | 0.815 | 0.719 | > 100 | 0.279 | 1.35 |  |  | 0.179 | 0.43 | 0.0713 | 0.388 | 0.346 | > 100 | 1.64 | > 100 |
